The values below come from US8232307B2, “Indane-amine derivatives, their preparation and use as medicaments” (Laboratorios del Dr. Esteve, S.A., priority 2007, dated 2012).

Counter-ions that a name gives are not always drawn.

In one test the target is T1, Cloned Human Serotonin Receptor, Subtype 7 (h5HT7) (Homo sapiens, UniProt P34969).
T1 construct: purchased PerkinElmer 6120512; host or cells: CHO cells (membranes coated on Basic FlashPlate SMP200)
T1 sequence (P34969 whole entry): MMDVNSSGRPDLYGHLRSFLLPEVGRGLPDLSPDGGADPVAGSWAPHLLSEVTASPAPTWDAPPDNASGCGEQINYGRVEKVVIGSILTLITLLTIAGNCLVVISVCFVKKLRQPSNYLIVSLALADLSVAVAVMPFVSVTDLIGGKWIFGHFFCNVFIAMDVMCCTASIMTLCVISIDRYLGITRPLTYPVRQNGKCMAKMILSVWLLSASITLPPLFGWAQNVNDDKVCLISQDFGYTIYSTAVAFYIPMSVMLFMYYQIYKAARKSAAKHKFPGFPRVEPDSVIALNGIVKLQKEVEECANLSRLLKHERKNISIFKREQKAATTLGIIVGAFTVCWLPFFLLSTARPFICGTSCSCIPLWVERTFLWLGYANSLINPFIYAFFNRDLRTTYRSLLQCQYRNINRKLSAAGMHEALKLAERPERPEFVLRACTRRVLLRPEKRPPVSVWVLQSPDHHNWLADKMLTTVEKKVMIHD
Kind of test: Radioligand binding assay, [125I]LSD, h5HT7 expressed in CHO cells. To be noted: radioligand [125I]LSD 0.82 nM, read-out: 5-HT7 IC50. As for the experimental part:
Radioligand binding assays were performed using the Cloned Human Serotonin Receptor, Subtype 7 (h5HT7), expressed in CHO cells, coated on Flashplate (Basic FlashPlate Cat.: SMP200) from PerkinElmer (Cat.: 6120512). The protocol assay was essentially the recommended protocol in the Technical Data Sheet by PerkinEmer Life and Analytical Sciences. The Mass membrane protein/well was typically 12 μg and the Receptor/well was about 9-10 fmoles. The Flashplate were let equilibrate at room temperature for one hour before the addition of the components of the assay mixture. The binding buffer was: 50 mM Tris-HCl, pH 7.4, containing 10 mM MgCl2, 0.5 mM EDTA and 0.5% BSA. The radioligand was [^125I]LSD at a final concentration of 0.82 nM. Nonspecific binding was determined with 50 μM of Clozapine. The assay volume was 25 μl. TopSeal-A were applied onto Flashplate microplates and they were incubated at room temperature for 240 minutes in darkness. The radioactivity were quantified by liquid scintillation spectrophotometry (Wallac 1450 Microbeta Trilux) with a count delay of 4 minutes prior to counting and a counting time of 30 seconds per well. Competition binding data were analyzed by using the LIGAND program (Munson and Rodbard, LIGAND: A versatile, computerized approach for characterization of ligand-binding systems. Anal. Biochem. 107: 220-239, 1980) and assays were performed in triplicate determinations for each point.
In general, IC50 refers to the concentration that gives 50% inhibition. In the case of `Cc1nn(C)c(C)c1-c1ccc2c(c1)C(N(C)C)CC2` (stereo not drawn) [Example 1, Dimethyl-[6-(1,3,5-trimethyl-1H-pyrazol-4-yl)-indan-1-yl]-amine dihydrochloride], the half-inhibitory concentration (IC50) is 15.5 ± 2.9 nM.

Take `Cc1nn(C)c(C)c1-c1ccc2c(c1)[C@H](N(C)C)CC2` [Example 2, (R)-Dimethyl-[6-(1,3,5-trimethyl-1H-pyrazol-4-yl)-indan-1-yl]-amine]: the IC50 is 5.5 ± 2.7 nM.

On to `Cc1nn(C)c(C)c1-c1ccc2c(c1)[C@@H](N(C)C)CC2` [Example 3, (S) Dimethyl-[6-(1,3,5-trimethyl-1H-pyrazol-4-yl)-indan-1-yl]-amine], for which the IC50 was found to be 307 ± 181 nM.

Consider `CNC1CCc2ccc(-c3c(C)nn(C)c3C)cc21` (stereo not drawn) [Example 4, Methyl-[6-(1,3,5-trimethyl-1H-pyrazol-4-yl)-indan-1-yl]-amine], for which the IC50 amounted to 18.7 nM.

As to `COc1cccc(OC)c1-c1ccc2c(c1)C(N(C)C)CC2` (stereo not drawn) [Example 10, [6-(2,6-Dimethoxy-phenyl)-indan-1-yl]-dimethyl-amine], the IC50 is 53.5 ± 10.1 nM.

`CNC1CCc2ccc(-c3c(OC)cccc3OC)cc21` (stereo not drawn) [Example 11, [6-(2,6-Dimethoxy-phenyl)-indan-1-yl]-methyl-amine]: the IC50 was found to be 195 ± 86 nM.

Take `COc1ccccc1-c1ccc2c(c1)C(N(C)C)CC2` (stereo not drawn) [Example 12, [6-(2-Methoxy-phenyl)-indan-1-yl]-dimethyl-amine]: the IC50 turned out to be 68.4 ± 1.1 nM.

`CNC1CCc2ccc(-c3ccccc3OC)cc21` (stereo not drawn) [Example 13, [6-(2-Methoxy-phenyl)-indan-1-yl]-methyl-amine]: the IC50 was 77.7 ± 40.9 nM.

The same test, now with this note: radioligand [125I]LSD 0.82 nM, read-out: 5-HT7 Ki.
One may read the Ki as a measure of affinity in units of concentration, obtained from inhibition or displacement. As for `Cc1cccc(C)c1-c1ccc2c(c1)C(N(C)C)CC2` (stereo not drawn) [Example 14, [6-(2,6-Dimethyl-phenyl)-indan-1-yl]-dimethyl-amine], the inhibition constant (Ki) was 198 ± 31.9 nM.

For `CNC1CCc2ccc(-c3c(C)cccc3C)cc21` (stereo not drawn) [Example 15, [6-(2,6-Dimethyl-phenyl)-indan-1-yl]-methyl-amine], the Ki was 75.2 ± 2 nM.

As for `CNC1CCc2ccc(-c3c(F)cccc3F)cc21` (stereo not drawn) [Example 19, [6-(2,6-Difluoro-phenyl)-indan-1-yl]-methyl-amine], the Ki came to 47.6 ± 1.2 nM.

As to `COc1cccc(Cl)c1-c1ccc2c(c1)C(N(C)C)CC2` (stereo not drawn) [Example 20, [6-(2-Chloro-6-methoxy-phenyl)-indan-1-yl]-dimethyl-amine], the inhibition constant Ki turned out to be 25.8 ± 2.7 nM.

With `CNC1CCc2ccc(-c3c(Cl)cccc3OC)cc21` (stereo not drawn) [Example 21, [6-(2-Chloro-6-methoxy-phenyl)-indan-1-yl]-methyl-amine], the Ki was found to be 55.7 ± 1.2 nM.

For the compound `Cc1nn(C)c(C)c1-c1ccc2c(c1)C([N+](C)(C)C)CC2` (stereo not drawn) [Example 36, Trimethyl-[6-(1,3,5-trimethyl-1H-pyrazol-4-yl)-indan-1-yl]-ammonium iodide], the Ki amounted to 153 ± 32.4 nM.

With `CN[C@@H]1CCc2ccc(-c3c(C)nn(C)c3C)cc21` [Example 38, (R) Methyl-[6-(1,3,5-trimethyl-1H-pyrazol-4-yl)-indan-1-yl]-amine], the Ki was found to be 73.3 ± 9.3 nM.
